One data set addresses T1, somatostatin receptor (Rattus norvegicus, UniProt P30680).
T1 construct: endogenous in cells; host or cells: AR42J rat pancreatic tumor cells (membrane preparation)
The data set is described as follows: Inhibition of [125I-Tyr11]somatostatin-14 binding to AR42J rat pancreatic tumor cell membranes. The conditions noted are these: [125I-Tyr11]somatostatin-14 0.5 nM, 25 min at 30° C. Here is the method:
The rat pancreatic tumor cell line AR42J expressing the somatostatin receptor was cultured in Dulbecco's modified essential media (DMEM) supplemented with 10% fetal calf serum (FCS) and 8 mM glutamine in a humidified 5% CO2 atmosphere at 37° C. Harvested cells were homogenized in cold buffer (50 mM Tris-HCl, pH 7.4), and the homogenate was then centrifuged at 39,000 g for 10 min at 4° C. Pellets were washed once with buffer and then resuspended in ice-cold 10 mM Tris-HCl buffer (pH 7.4). Equal aliquots of this cell membrane preparation were then incubated with [^125I-Tyr^11]somatostatin-14 (Amersham, Arlington Heights, Ill.) at a final concentration of 0.5 nM at 750,000 cpm/mL, specific activity 2000Ci/mmol and either a peptide or peptide-rhenium complex of the invention (at a final concentration ranging from […] in 50 mM HEPES buffer, pH 7.4, containing 1% bovine serum albumin, 5 mM MgCl2, 0.02 mg/mL bacitracin, 0.02 mg/mL phenylmethyl-sulfonylfluoride and 200,000 IU Trasylol) for 25 min at 30° C.
After incubation, this membrane mixture was filtered through a polyethyleneimine-washed GC/F filter (Whatman Ltd., Maidstone, England) using a filtration manifold, and the residue remaining on the filter was washed three times with 5 mL cold HEPES buffer. The filter and a sample of the filter washings were then counted on a gamma counter. […]

For data set [1], the system named is fresh human platelet-rich plasma. The data set is described as follows: Platelet aggregation inhibition assay (ADP-induced). The class given is cell-based. Here is the method:
Platelet aggregation studies were performed essentially as described by Zucker (1989, Methods in Enzymol. 169: 117–133). Briefly, platelet aggregation was assayed with or without putative platelet aggregation inhibitory compounds using fresh human platelet-rich plasma, comprising 300,000 platelets per microlitre. Platelet aggregation was induced by the addition of a solution of adenosine diphosphate to a final concentration of 10 to 15 micromolar, and the extent of platelet aggregation monitored using a Bio/Data aggregometer (Bio/Data Corp., Horsham, Pa.). The concentrations of platelet aggregation inhibitory compounds used were varied from 0.1 to 500 μg/mL. The concentration of inhibitor that reduced the extent of platelet aggregation by 50% (defined as the IC50) was determined from plots of inhibitor concentration versus extent of platelet aggregation. An inhibition curve for peptide RGDS was determined for each batch of platelets tested as a positive control.

In data set [2] the test system is thrombus. The data set is described as follows: In vivo imaging of deep vein thrombosis with Tc-99m labeled thrombus targeting peptide, canine model. Particulars: Tc-99m labeled peptide, i.v., dog.
Description: (§1) Mongrel dogs (25–35 lb., fasted overnight) were sedated with a combination of ketamine and aceprozamine intramuscularly and then anesthetized with sodium pentabarbital intravenously. In each animal, an 18-gauge angiocath was inserted in the distal half of the right femoral vein and a 5 mm or 8 mm Dacron®-entwined stainless steel embolization coil (Cook Co., Bloomington Ind.) was placed in the femoral vein at approximately mid-femur. The catheter was removed, the wound sutured and the placement of the coil documented by X-ray. The animals were then allowed to recover overnight.
(§2) One day following coil placement, each animal was re-anesthetized, intravenous saline drips placed in each foreleg and a urinary bladder catheter inserted to collect urine. The animal was placed supine under a gamma camera equipped with a low-energy, all purpose collimator and photopeaked for Tc-99m. […] The second line was maintained for blood collection.
(§3) Gamma camera imaging was started simultaneously with injection. Anterior images over the heart were acquired as a dynamic study (10 sec image acquisitions) over the first 10 min, and then as static images at 1, 2, 3 and 4h post-injection. Anterior images over the legs were acquired for 500,000 counts or 20 min (whichever is shorter), at approximately 10–20 min, and at approximately 1, 2, 3 and 4h post-injection. Leg images were collected with a lead shield placed over the bladder.
(§4) Following collection of the final image, each animal was deeply anesthetized with pentobarbital. Two blood samples were collected using a heparinized syringe followed by a euthanizing dose of saturated potassium chloride solution administered by intercardiac or bolus intravenous injection. […] The thrombus, coil and coil Dacron fibres were then dissected free of the vessel. The thrombus, saline-washed vessel samples, coil and coil Dacron® fibres were separated, and each sample was placed in a pre-weighed test tube. The samples were weighed and counted in a gamma well counter in the Tc-99m channel, along with known fractions of the injected doses.
(§5) Fresh thrombus weight, percent injected dose (% ID)/g in the thrombus and blood obtained just prior to euthanasia and thrombus/blood and thrombus/muscle ratios were determined. From the computer-stored images, thrombus/background ratios were determined by analysis of the counts/pixel measured in regions-of-interest (ROI) drawn over the thrombus and adjacent muscle.
Data set [3] relates to thrombus. The conditions noted are these: dog, in vivo, iv.
Description: as §1, §2, §3, §4, §5
In data set [4] the test system is Escherichia coli infected muscle. Set-up: species or system New Zealand White (NZW) rabbits. Particulars: rabbit, in vivo. Here is the method: New Zealand White (NZW) rabbits of both sexes and weighing 2–3 kg were innoculated intramuscularly in the left calf with a potent strain of Escherichia coli. After 24 hours, the animals were sedated by intramuscular injection of ketamine and xylazine and then injected with Tc-99m labeled infection targeting agent (2–10mCi, <150 μg). The animals were then positioned supine in the field of view of a gamma cammera (LEAP collimator/photopeaked for Tc-99m) to be imaged. The animals were imaged over the first hour post-injection, and then at approximately 1 hour intervals for the next 3 hours. Animals were allowed to recover between image acquisiitons and re-anesthetized as needed.
Upon completion of the final imaging, each animal was sacrificed with an intravenous overdose of sodium pentobarbital, then dissected to obtain samples of blood and of infected and control tissue. Tissue samples were weighed and counted using a gamma radition counter; a standard amount the injected dose was counted in parallel with each sample as a control.

The test system of data set [5] is CA20948 rat pancreatic tumor. Also noted: species or system Lewis rats. Particulars: in vivo, iv. Here is the method: In vivo imaging of somatostatin receptors expressed by rat tumor cells was performed essentially as described by Bakker et al. (1991, Life Sciences 49: 1593–1601).
CA20948 rat pancreatic tumor cells, thawed from frozen harvested tumor brei, were implanted intramuscularly into the right hind thigh of 6 week old Lewis rats in a suspension of 0.05 to 0.1 mL/animal. The tumors were allowed to grow to approximately 0.5 to 2 g, harvested, and tumor brei was used to implant a second, naive set of Lewis rats. Passaging in this fashion was repeated to generate successive generations of tumor-bearing animals. The tumor-bearing animals used for the in vivo studies were usually from the third to fifth passage and carried 0.2 to 2 g tumors.
For studies of the specificity of radiotracer localization in the tumors, selected animals were given an subcutaneous SSTR-blocking dose (4 mg/kg) of octreotide 30 minutes prior to injection of the radiotracer.
Third- to fifth-passage CA20948 tumor-bearing Lewis rats were restrained and injected intravenously via the dorsal tail vein with a dose of 0.15–0.20 mCi of a ^99mTc-labeled SSTR targeting imaging agent of the invention (corresponding to 3 to 8 μg peptide in 0.2 to 0.4 mL).
At selected times, the animals were sacrificed by cervical dislocation and selected necropsy was performed. Harvested tissue samples were weighed and counted along with an aliquot of the injected dose in a gamma well-counter.

The mark [6] stands for this setting: ADP 10 to 15 micromolar, human platelet-rich plasma, read-out: IC50.

Where two headings read alike, the source gives them in different places. Starred links: 1 amine or outer side, 2 acyl side, 3 side chain; linkers in the order of their positions; H or OH if unused. Positions of bridges follow the written chain, without caps; N, C: chain ends. Non-standard residues stand in square brackets, D forms with d. Residues, ends and D or L forms follow the SMILES beside them. Chains are numbered I, II in the order given. No end group written: not given here. *: point of attachment. Phe(4-Cl) = N[C@@H](Cc1ccc(Cl)cc1)C(=O)O; d2Nal = N[C@H](Cc1ccc2ccccc2c1)C(=O)O; εLys = N[C@@H](CCCCN[*:1])C(=O)[*:2]; Propyl(3-NH2) = NCCC*; βAla = NCCC(=O)O

T1 sequence (P30680 whole entry): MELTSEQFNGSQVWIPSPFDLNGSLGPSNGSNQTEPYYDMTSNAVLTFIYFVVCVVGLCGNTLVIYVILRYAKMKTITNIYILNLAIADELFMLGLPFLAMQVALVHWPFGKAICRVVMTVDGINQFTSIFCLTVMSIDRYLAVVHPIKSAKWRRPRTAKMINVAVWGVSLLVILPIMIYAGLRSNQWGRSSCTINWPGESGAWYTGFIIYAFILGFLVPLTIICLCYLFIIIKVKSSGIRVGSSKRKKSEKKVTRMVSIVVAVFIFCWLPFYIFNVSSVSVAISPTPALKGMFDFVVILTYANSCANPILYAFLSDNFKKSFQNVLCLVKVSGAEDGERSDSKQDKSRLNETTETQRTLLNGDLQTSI

For `CC(=O)N[C@H](Cc1ccc2ccccc2c1)C(=O)N[C@@H](Cc1ccc(Cl)cc1)C(=O)N[C@@H](Cc1ccc(O)cc1)C(=O)N[C@H](Cc1c[nH]c2ccccc12)C(=O)N[C@@H](CCCCN)C(=O)N[C@H](C(=O)N[C@@H](Cc1ccccc1)C(=O)N[C@H](C(=O)NCCCC[C@H](N)C(=O)NCC(=O)N[C@@H](CS)C(=O)N[C@@H](CCCCN)C(=O)N[C@@H](CCCCN)C(N)=O)[C@@H](C)O)[C@@H](C)O` [Peptide P548, acetyl.NalD.Cpa.YWDKTFT(ε-K)GCKK.amide] (Ac-[d2Nal][Phe(4-Cl)]Y[dW]KTFT[εLys]GCKK-NH2), the inhibition constant (Ki) (as a rule, the equilibrium dissociation constant of an inhibitor or competing ligand from its target) at somatostatin receptor was found to be 3.6 nM. This lies in the single-digit nanomolar range.

For the compound `NCCCSC[C@@H]1NC(=O)[C@@H](Cc2ccc(O)cc2)NC(=O)CSC[C@@H](C(=O)NCC(=O)NCCCC[C@H](NC(=O)CNC(=O)[C@@H]2CSCC(=O)N[C@H](Cc3ccc(O)cc3)C(=O)N[C@@H](CSCCCN)C(=O)NCC(=O)N[C@@H](CC(=O)O)C(=O)N2)C(=O)NCC(=O)NCCCC[C@H](NC(=O)CNC(=O)[C@H](CCCCNC(=O)CNC(=O)[C@@H]2CSCC(=O)N[C@H](Cc3ccc(O)cc3)C(=O)N[C@@H](CSCCCN)C(=O)NCC(=O)N[C@@H](CC(=O)O)C(=O)N2)NC(=O)CNC(=O)[C@@H]2CSCC(=O)N[C@H](Cc3ccc(O)cc3)C(=O)N[C@@H](CSCCCN)C(=O)NCC(=O)N[C@@H](CC(=O)O)C(=O)N2)C(=O)NCCCC[C@H](N)C(=O)NCC(=O)N[C@@H](CS)C(=O)NCC(N)=O)NC(=O)[C@H](CC(=O)O)NC(=O)CNC1=O` [Peptide P681, {(CH2CO.YDApc.GDCG)2KG}2K(ε-K)GCG.amide] (I: {CH2CO}-[dY]C(Propyl(3-NH2))GDCGKGK[εLys]GCG-NH2 / II: {CH2CO}-[dY]C(Propyl(3-NH2))GDCGKG / III: {CH2CO}-[dY]C(Propyl(3-NH2))GDCG / IV: {CH2CO}-[dY]C(Propyl(3-NH2))GDCG; amide I:7-IV:C, I:9-II:C, II:7-III:C (inferred); thioether I:N-I:5, II:N-II:5, III:N-III:5, IV:N-IV:5 (inferred)), in data set [1], the IC50 (usually the concentration that inhibits the measured activity by half) worked out at 110 nM.

In data set [1], `NCCCC[C@H](NC(=O)[C@@H]1CSCC(=O)N[C@H](Cc2ccc(O)cc2)C(=O)N[C@@H](CSCCCN)C(=O)NCC(=O)N[C@@H](CC(=O)O)C(=O)N1)C(=O)NCC(=O)NCC(=O)NCCCC[C@H](NC(=O)CNC(=O)CNC(=O)[C@H](CCCCN)NC(=O)[C@@H]1CSCC(=O)N[C@H](Cc2ccc(O)cc2)C(=O)N[C@@H](CSCCCN)C(=O)NCC(=O)N[C@@H](CC(=O)O)C(=O)N1)C(=O)NCCCC[C@H](N)C(=O)NCC(=O)N[C@@H](CS)C(=O)NCCC(N)=O` [Peptide P687, (CH2CO.YD.Apc.GDCKGG)2K(ε-K)GC.β-Ala.amide] (I: {CH2CO}-[dY]C(Propyl(3-NH2))GDCKGGK[εLys]GC[βAla]-NH2 / II: {CH2CO}-[dY]C(Propyl(3-NH2))GDCKGG; amide I:9-II:C (inferred); thioether I:N-I:5, II:N-II:5 (inferred)) registered an IC50 of 79 nM.

As for `CC(=O)NCSC[C@H](NC(=O)CNC(=O)CNC(=O)[C@@H]1CSCC(=O)N[C@H](Cc2ccc(O)cc2)C(=O)N[C@@H](CSCCCN)C(=O)NCC(=O)N[C@@H](CC(=O)O)C(=O)N1)C(=O)NCC(=O)N[C@@H](CSCNC(C)=O)C(=O)NCC(=O)NCC(=O)N[C@@H](CSCC(=O)NCCCC[C@H](NC(=O)CSC[C@H](NC(=O)CNC(=O)CNC(=O)[C@H](CSCNC(C)=O)NC(=O)CNC(=O)[C@H](CSCNC(C)=O)NC(=O)CNC(=O)CNC(=O)[C@@H]1CSCC(=O)N[C@H](Cc2ccc(O)cc2)C(=O)N[C@@H](CSCCCN)C(=O)NCC(=O)N[C@@H](CC(=O)O)C(=O)N1)C(N)=O)C(=O)NCCCC[C@H](NC(=O)[C@H](CCCCNC(=O)CSC[C@H](NC(=O)CNC(=O)CNC(=O)[C@H](CSCNC(C)=O)NC(=O)CNC(=O)[C@H](CSCNC(C)=O)NC(=O)CNC(=O)CNC(=O)[C@@H]1CSCC(=O)N[C@H](Cc2ccc(O)cc2)C(=O)N[C@@H](CSCCCN)C(=O)NCC(=O)N[C@@H](CC(=O)O)C(=O)N1)C(N)=O)NC(=O)CSC[C@H](NC(=O)CNC(=O)CNC(=O)[C@H](CSCNC(C)=O)NC(=O)CNC(=O)[C@H](CSCNC(C)=O)NC(=O)CNC(=O)CNC(=O)[C@@H]1CSCC(=O)N[C@H](Cc2ccc(O)cc2)C(=O)N[C@@H](CSCCCN)C(=O)NCC(=O)N[C@@H](CC(=O)O)C(=O)N1)C(N)=O)C(=O)NCCCC[C@H](N)C(=O)NCC(=O)N[C@@H](CS)C(=O)NCC(N)=O)C(N)=O` [Peptide P688, {(CH2CO.YD.Apc. GDCGGCAcmGCAcmGGCamide)2(CH2CO)2K}2.K(ε-K)GCG.amide], in data set [1] (setting [6]), the IC50 was 26 nM.

On to “(CH2CO.YD.Apc.GDCGGCAcmGCAcmGGC.amide)2(CH2CO)2K(ε-K)GC.amide [Peptide P667]”, for which, in the data set on thrombus [2] (after the final image (4h post-injection)), the “% ID/g Thrombus” value came to 0.006 % ID/g. For the same compound, in the data set on thrombus [2] (ratio), the Thrombus/Blood is recorded as 5.9 and the Thrombus/Muscle stood at 30. For the same compound, the IC50 in data set [1] (setting [6]) was found to be 110 nM.

In the data set on thrombus [3], “(CH2CO.YDApc.GDCKGCG.amide)2(CH2CO)2K(ε-K)GC.amide [Peptide P748]” displayed a Thrombus/Blood of 5.8 and a Thrombus/Muscle of 90. For the same compound, the 50% inhibitory concentration (IC50) in data set [1] (setting [6]) came out at 29 nM.

In the case of GGCGLF [Peptide P477], in data set [4], the “Blood (% ID/g)” value is 0.0140 % ID/g, the “Control Muscle (% ID/g)” value worked out at 0.0012 % ID/g, the “Infected Muscle (% ID/g)” value turned out to be 0.0100 % ID/g and the “Ratio of Infected/Blood” value is 0.72. Also, in data set [4], the “Ratio of Infected/Control” value came out at 8.4.

Turning to “GGCSIPPEVKFNKPFVYLI.amide (GGCSIPPEVKFNKPFVYLI-NH2) [Peptide P472]”, in data set [4], the “Blood (% ID/g)” value was 0.0076 % ID/g, the “Control Muscle (% ID/g)” value is listed as 0.0009 % ID/g, the “Infected Muscle (% ID/g)” value is listed as 0.0079 % ID/g and the “Ratio of Infected/Blood” value is 1.0. Besides, the “Ratio of Infected/Control” value in data set [4] turned out to be 8.8.

For the compound “cyclo(N-methyl)FYWDKV.Hcy.(CH2CO.(β-Dap)KCK.amide) [Peptide P829]”, the Tumor/Blood in data set [5] was found to be 13.

In data set [5], “cyclo(N-methyl)FYWDKV.Hcy.(CH2CO.(β-Dap)KCR.amide) [Peptide P832]” came in with a Tumor/Blood of 13.

“cyclo(N-methyl)FYWDKV.Hcy.(CH2CO.(δ-Dap)GCK.amide) [Peptide P772]” came in with a Tumor/Blood in data set [5] of 7.2.

“cyclo(N-methyl)FYWDKV.Hcy.(CH2CO.(δ-Orn)GCK.amide) [Peptide P773]”: in data set [5] (1.5 h), the “% ID/g Blood” value came to 0.13 % ID/g, the “% ID/g Tumor” value is 1.9 % ID/g and the Tumor/Blood was 15.

“cyclo(N-methyl)FYWDKV.Hcy.(CH2CO.(ε-K)GCKK.amide) [Peptide P723]”: in data set [5], the Tumor/Blood stood at 5.4.

Source of the values: patent US7238340B1, “Monoamine, diamide, thiol-containing metal chelating agents” (CIS bio international, priority 1991, dated 2007).
